{"source": "ChEMBL document CHEMBL5465560", "about": "“Selectivity Literature for EUbOPEN Chemogenomic Library” (2024)", "key": {"[1]": {"target": "RAC-beta serine/threonine-protein kinase (Homo sapiens) (UniProt P31751)", "sequence (P31751 whole entry)": "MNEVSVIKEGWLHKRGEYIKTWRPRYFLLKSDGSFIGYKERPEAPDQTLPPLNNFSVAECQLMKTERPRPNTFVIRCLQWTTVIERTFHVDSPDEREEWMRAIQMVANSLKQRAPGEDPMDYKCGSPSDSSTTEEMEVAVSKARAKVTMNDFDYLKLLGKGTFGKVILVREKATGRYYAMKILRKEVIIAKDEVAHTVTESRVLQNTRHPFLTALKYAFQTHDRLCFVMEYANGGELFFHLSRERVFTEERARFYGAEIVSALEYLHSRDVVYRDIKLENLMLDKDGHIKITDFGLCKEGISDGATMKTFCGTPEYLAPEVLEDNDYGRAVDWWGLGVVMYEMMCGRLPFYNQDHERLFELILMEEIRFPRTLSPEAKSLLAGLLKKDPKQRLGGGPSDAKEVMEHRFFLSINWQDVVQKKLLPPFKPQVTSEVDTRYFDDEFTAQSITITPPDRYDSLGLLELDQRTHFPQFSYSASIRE", "conditions": "at 10 µM"}, "[2]": {"target": "Mitogen-activated protein kinase 11 (Homo sapiens) (UniProt Q15759)", "sequence (Q15759 whole entry)": "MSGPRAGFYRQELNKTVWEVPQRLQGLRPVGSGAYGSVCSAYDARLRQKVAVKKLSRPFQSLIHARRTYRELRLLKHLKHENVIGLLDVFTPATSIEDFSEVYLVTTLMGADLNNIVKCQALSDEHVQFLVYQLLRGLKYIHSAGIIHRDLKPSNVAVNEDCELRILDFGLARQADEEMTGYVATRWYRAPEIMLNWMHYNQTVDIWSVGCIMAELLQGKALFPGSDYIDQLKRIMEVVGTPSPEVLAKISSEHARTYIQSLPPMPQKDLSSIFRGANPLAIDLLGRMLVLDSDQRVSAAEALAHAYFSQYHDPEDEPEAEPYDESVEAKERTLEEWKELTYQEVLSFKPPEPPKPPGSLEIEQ", "conditions": "at 10 µM"}, "[3]": {"target": "Vascular endothelial growth factor receptor 3 (Homo sapiens, UniProt P35916)", "experiment": "Selectivity interaction (KinomeScan (DiscoverX)) EUB0000655a FLT4", "conditions": "at 10 µM"}, "[4]": {"target": "T1, Discoidin domain-containing receptor 2 (Homo sapiens) (UniProt Q16832)", "T1 sequence (whole entry)": "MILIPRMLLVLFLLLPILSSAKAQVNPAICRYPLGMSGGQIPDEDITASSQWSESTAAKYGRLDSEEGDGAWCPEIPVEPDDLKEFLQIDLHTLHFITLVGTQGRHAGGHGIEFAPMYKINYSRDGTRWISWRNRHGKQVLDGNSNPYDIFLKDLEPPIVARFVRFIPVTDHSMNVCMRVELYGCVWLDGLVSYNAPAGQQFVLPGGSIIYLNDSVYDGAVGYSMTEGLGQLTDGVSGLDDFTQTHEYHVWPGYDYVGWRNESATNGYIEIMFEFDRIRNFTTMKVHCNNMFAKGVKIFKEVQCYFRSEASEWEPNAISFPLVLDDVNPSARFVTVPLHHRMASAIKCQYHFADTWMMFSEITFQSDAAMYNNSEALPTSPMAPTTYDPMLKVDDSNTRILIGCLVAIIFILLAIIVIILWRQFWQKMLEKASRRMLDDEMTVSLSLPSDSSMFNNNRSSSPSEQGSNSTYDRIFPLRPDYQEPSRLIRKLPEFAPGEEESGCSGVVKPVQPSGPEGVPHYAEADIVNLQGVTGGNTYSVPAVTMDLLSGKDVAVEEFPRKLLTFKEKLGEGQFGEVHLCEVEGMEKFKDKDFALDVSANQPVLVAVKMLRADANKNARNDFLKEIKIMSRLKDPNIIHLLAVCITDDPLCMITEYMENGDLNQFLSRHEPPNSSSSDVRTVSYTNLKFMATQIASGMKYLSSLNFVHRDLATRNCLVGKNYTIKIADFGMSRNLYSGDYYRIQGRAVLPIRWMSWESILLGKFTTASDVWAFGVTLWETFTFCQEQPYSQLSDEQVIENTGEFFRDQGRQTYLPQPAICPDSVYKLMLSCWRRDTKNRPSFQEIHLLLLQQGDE", "experiment": "Selectivity interaction (KinomeScan (DiscoverX)) EUB0000655a DDR2", "conditions": "at 10 µM"}, "[5]": {"target": "Receptor tyrosine-protein kinase erbB-3 (Homo sapiens) (UniProt P21860)", "sequence (P21860 whole entry)": "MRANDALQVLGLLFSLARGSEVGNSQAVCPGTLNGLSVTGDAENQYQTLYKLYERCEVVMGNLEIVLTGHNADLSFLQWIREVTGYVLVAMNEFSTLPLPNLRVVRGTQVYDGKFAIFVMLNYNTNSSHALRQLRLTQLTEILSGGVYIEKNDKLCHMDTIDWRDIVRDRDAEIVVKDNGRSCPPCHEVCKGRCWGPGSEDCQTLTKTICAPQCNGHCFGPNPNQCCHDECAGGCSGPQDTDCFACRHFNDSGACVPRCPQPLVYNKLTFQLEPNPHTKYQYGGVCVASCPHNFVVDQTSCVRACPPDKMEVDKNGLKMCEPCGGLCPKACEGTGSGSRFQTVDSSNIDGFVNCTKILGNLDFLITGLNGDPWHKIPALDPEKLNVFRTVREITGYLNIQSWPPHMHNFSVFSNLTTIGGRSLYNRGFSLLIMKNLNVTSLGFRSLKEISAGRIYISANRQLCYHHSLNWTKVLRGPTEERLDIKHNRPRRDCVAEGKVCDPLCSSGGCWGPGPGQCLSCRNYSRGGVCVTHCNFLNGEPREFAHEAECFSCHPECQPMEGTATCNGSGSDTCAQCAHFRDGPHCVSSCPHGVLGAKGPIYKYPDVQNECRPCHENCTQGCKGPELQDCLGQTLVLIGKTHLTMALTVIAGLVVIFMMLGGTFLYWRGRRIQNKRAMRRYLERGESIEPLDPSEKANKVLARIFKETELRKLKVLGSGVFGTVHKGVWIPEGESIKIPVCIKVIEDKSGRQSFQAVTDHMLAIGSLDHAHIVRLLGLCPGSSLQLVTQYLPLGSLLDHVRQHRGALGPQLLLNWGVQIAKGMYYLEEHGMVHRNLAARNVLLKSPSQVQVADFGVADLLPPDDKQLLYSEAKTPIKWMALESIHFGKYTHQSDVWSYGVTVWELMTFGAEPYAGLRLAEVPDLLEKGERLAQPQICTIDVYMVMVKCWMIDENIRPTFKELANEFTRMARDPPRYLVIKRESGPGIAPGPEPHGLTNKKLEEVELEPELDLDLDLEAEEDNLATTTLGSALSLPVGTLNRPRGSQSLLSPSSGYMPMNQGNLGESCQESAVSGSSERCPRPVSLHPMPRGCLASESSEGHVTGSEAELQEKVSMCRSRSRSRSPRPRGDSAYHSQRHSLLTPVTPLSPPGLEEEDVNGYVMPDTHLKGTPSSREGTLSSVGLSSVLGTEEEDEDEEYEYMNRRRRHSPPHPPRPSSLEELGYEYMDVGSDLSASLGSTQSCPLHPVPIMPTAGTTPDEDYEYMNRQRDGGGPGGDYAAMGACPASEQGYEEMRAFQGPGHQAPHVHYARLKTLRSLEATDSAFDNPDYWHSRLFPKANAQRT", "experiment": "Selectivity interaction (KinomeScan (DiscoverX)) EUB0000607a ERBB3", "conditions": "at 10 µM"}, "[6]": {"target": "BDNF/NT-3 growth factors receptor (Homo sapiens) (UniProt Q16620)", "sequence (Q16620 32-822 limits assumed)": "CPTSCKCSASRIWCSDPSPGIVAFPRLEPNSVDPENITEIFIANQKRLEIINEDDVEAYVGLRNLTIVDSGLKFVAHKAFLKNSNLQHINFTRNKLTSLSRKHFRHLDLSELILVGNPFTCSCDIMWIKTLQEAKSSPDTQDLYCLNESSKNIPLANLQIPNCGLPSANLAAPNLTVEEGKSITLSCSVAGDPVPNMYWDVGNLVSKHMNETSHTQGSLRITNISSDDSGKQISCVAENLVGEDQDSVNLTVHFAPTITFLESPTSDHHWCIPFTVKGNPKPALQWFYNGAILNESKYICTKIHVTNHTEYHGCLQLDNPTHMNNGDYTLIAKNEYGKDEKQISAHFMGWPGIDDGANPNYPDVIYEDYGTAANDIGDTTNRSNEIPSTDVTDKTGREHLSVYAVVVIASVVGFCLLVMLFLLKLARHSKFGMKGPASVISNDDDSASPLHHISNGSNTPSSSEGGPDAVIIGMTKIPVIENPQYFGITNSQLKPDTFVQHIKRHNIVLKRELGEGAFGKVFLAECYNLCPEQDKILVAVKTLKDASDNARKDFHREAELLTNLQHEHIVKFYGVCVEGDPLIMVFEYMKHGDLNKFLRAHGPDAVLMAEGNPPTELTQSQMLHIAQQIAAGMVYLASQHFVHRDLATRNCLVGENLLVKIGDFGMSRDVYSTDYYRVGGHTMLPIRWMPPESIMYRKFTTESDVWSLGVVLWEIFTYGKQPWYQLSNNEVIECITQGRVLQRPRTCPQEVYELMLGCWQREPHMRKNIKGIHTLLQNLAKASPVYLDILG", "experiment": "Selectivity interaction (SelectScreen Kinase Profiling (Thermo Fisher Scientific)) EUB0001558a NTRK2", "conditions": "at 1 µM"}, "[7]": {"target": "Dual specificity tyrosine-phosphorylation-regulated kinase 1B (Homo sapiens, UniProt Q9Y463)", "sequence (Q9Y463 whole entry, looked up)": "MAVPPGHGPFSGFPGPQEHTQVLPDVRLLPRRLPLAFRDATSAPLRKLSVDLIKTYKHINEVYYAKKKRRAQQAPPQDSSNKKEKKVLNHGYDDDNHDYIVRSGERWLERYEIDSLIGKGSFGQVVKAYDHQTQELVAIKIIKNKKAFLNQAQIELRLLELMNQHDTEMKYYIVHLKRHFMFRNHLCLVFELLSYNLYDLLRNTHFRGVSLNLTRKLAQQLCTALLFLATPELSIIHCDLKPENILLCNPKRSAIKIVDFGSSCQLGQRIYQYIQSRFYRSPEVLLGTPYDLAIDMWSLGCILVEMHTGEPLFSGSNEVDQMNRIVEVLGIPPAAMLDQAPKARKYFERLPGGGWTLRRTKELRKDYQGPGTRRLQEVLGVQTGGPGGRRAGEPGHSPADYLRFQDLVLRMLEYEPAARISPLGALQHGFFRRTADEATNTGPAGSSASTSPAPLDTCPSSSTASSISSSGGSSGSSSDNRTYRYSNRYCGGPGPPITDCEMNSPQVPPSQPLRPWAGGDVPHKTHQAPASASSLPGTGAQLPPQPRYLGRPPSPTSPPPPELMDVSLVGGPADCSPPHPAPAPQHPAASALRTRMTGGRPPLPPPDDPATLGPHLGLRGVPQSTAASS", "experiment": "Selectivity interaction (KinomeScan (DiscoverX)) EUB0000045b DYRK1B"}, "[8]": {"target": "Cyclin-dependent kinase 8 (Homo sapiens, UniProt P49336)", "conditions": "at 10 µM"}, "[9]": {"target": "Dual specificity protein kinase CLK1 (Homo sapiens, UniProt P49759)", "sequence (P49759 whole entry, looked up)": "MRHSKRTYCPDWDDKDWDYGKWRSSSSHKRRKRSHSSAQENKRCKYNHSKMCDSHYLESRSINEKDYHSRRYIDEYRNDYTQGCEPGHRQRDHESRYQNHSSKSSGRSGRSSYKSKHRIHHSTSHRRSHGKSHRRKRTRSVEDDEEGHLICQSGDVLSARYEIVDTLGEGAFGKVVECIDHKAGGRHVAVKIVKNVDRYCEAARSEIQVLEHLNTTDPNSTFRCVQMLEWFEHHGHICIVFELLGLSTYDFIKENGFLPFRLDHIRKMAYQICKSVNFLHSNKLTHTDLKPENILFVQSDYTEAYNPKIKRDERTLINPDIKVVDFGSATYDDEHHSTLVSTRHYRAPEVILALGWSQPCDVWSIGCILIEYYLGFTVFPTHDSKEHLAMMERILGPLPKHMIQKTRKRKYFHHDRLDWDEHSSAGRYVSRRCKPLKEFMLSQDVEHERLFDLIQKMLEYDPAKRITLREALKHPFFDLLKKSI", "experiment": "Selectivity interaction (Kinase panel (Invitrogen)) EUB0000639a CLK1", "conditions": "at 200 nM"}, "[10]": {"target": "Tyrosine-protein kinase Yes (Homo sapiens) (UniProt P07947)", "sequence (P07947 2-543 limits assumed)": "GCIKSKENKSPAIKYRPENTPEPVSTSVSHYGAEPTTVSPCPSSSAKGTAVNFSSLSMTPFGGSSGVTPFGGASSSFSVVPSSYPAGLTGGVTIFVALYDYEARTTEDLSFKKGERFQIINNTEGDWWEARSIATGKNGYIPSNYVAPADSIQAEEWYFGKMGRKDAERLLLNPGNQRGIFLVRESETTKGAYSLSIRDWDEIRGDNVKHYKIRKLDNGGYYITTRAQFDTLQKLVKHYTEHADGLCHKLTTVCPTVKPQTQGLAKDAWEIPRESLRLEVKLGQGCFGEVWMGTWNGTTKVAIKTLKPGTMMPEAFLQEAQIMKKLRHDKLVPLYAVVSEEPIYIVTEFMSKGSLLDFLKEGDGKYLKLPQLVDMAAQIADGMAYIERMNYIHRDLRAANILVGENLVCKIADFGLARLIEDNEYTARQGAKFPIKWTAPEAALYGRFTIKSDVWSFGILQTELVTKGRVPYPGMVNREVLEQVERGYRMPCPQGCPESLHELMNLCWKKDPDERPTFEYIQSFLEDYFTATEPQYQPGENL", "experiment": "Selectivity interaction (ActivX KiNativ screen (kinase selectivity in THP-1 cell lysates)) EUB0000639a YES1", "assay_type": "subcellular", "conditions": "lysate"}, "[11]": {"target": "T2, Mitogen-activated protein kinase kinase kinase kinase 2 (Homo sapiens) (UniProt Q12851)", "T2 sequence (whole entry)": "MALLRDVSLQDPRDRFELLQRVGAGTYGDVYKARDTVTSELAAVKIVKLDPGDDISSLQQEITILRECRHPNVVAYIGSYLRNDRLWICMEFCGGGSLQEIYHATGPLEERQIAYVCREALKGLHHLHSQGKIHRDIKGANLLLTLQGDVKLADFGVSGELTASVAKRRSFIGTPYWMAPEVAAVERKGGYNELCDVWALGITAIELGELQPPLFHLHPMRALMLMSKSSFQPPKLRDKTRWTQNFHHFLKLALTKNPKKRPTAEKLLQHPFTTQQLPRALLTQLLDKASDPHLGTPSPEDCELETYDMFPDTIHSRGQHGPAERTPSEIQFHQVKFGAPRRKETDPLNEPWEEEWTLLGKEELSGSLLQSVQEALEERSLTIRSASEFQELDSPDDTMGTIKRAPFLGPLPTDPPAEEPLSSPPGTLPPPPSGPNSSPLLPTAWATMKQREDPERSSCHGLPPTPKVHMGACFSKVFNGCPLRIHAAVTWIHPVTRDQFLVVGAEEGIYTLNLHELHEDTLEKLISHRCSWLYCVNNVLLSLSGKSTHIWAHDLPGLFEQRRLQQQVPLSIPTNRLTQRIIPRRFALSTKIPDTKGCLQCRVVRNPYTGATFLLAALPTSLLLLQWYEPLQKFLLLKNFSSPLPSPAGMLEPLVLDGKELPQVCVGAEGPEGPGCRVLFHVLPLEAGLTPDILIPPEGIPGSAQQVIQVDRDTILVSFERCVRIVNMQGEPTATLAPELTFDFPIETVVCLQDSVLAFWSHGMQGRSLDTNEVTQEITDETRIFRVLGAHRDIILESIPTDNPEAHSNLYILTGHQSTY", "experiment": "Selectivity interaction (KinomeScan (DiscoverX)) EUB0000229b MAP4K2", "conditions": "at 10 µM"}, "[12]": {"target": "5-hydroxytryptamine receptor 1B (Homo sapiens) (UniProt P28222)", "sequence (P28222 whole entry)": "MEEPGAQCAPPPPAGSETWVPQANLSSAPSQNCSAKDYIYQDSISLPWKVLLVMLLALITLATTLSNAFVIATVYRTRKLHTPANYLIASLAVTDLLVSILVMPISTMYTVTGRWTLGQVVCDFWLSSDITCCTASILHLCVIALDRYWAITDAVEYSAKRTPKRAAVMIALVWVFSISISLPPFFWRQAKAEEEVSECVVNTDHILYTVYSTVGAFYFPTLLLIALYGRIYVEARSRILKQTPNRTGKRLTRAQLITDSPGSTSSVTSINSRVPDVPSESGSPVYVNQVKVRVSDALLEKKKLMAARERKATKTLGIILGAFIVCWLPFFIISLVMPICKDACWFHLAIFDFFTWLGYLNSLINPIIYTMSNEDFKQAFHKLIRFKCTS", "experiment": "Selectivity interaction (Panel of kinases, GPCRs, ion channels and transporters (enzymatic assay)) EUB0000266bCl HTR1B"}, "[13]": {"target": "Protein polybromo-1 (Homo sapiens) (UniProt Q86U86)", "experiment": "Selectivity interaction (Human bromodomain panel (DSF assay)) EUB0000233b PBRM1"}, "[14]": {"target": "Ribosomal protein S6 kinase beta-1 (Homo sapiens, UniProt P23443)", "experiment": "Selectivity interaction (Kinase screening (Upstate/Millipore)) EUB0000604a RPS6KB1"}}, "data": [{"smiles": "CCN(CC)CCCCNc1ncc2cc(-c3cc(OC)cc(OC)c3)c(NC(=O)NC(C)(C)C)nc2n1", "values": [{"measurement": "% of control", "setting": "[1]", "result": 100, "unit": "%"}, {"measurement": "% of control", "setting": "[2]", "result": 100, "unit": "%"}]}, {"smiles": "CN(C)CCOc1ccc(-c2nc(-c3ccncc3)c(-c3ccc4c(c3)CC/C4=N\\O)[nH]2)cc1", "values": [{"measurement": "% of control", "setting": "[3]", "result": 100, "unit": "%"}, {"measurement": "% of control", "setting": "[4]", "result": 67, "unit": "%"}]}, {"smiles": "CNC(=O)Nc1ccc(-c2nc(N3CC4CCC(C3)O4)c3cnn(C4CCC5(CC4)OCCO5)c3n2)cc1", "values": [{"measurement": "% of control", "setting": "[5]", "result": 100, "unit": "%"}]}, {"smiles": "CC(C)(O)[C@H](F)CN1Cc2cc(NC(=O)c3cnn4cccnc34)c(N3CCOCC3)cc2C1=O", "values": [{"measurement": "% of inhibition", "setting": "[6]", "result": 86, "unit": "%"}]}, {"smiles": "C=CC(=O)Nc1cc(-n2c(=O)ccc3cnc4ccc(-c5ccc(NS(C)(=O)=O)cc5)cc4c32)ccc1C", "values": [{"measurement": "% of control", "setting": "[7]; at 1 µM", "result": 100, "unit": "%"}, {"measurement": "% of control", "setting": "[7]; at 10 µM", "result": 81, "unit": "%"}]}, {"smiles": "COCC(=O)NC/C=C/c1ccc2ncnc(Nc3ccc(Oc4ccc(C)nc4)c(C)c3)c2c1", "note": "[CP-724714]", "values": [{"measurement": "% of control", "setting": "[8]", "result": 3, "unit": "%"}]}, {"smiles": "CC[C@@H]1[C@H](F)C(=O)N[C@@H]1COc1nccc2cc(C(N)=O)c(OC)cc12", "note": "[ZIMLOVISERTIB]", "values": [{"measurement": "% of inhibition", "setting": "[9]", "result": 34.5, "unit": "%"}, {"measurement": "% of inhibition", "setting": "[10]; at 0.01 µM", "result": -8.5, "unit": "%"}, {"measurement": "% of inhibition", "setting": "[10]; at 0.04 µM", "result": -0.2, "unit": "%"}, {"measurement": "% of inhibition", "setting": "[10]; at 0.2 µM", "result": 0.7, "unit": "%"}, {"measurement": "% of inhibition", "setting": "[10]; at 1 µM", "result": -11, "unit": "%"}, {"measurement": "% of inhibition", "setting": "[10]; at 5 µM", "result": -13.3, "unit": "%"}]}, {"smiles": "COc1cc(N(C)c2ccnc3ccc(C(F)(F)F)cc23)cc(OC)c1OC", "values": [{"measurement": "% binding", "setting": "[11]", "result": 65, "unit": "%"}]}, {"smiles": "CCn1c(-c2nc3cc(C(=O)N4CCCC(N)C4)ccc3n2C)cc2ccccc21", "note": "(centres undefined)", "values": [{"measurement": "pXC50", "setting": "[12]", "result": "< 4.5", "unit": "M"}]}, {"smiles": "CN(C)CCCOc1ccc(-c2cc(NCCCn3cccn3)nc(S(C)(=O)=O)n2)cc1", "values": [{"measurement": "dTM", "setting": "[13]", "result": "< 2", "unit": "K"}]}, {"smiles": "Cc1cnc(Nc2ccc(F)cc2Cl)nc1-c1c[nH]c(C(=O)N[C@H](CO)c2cccc(Cl)c2)c1", "values": [{"measurement": "% of inhibition", "setting": "[14]", "result": 18, "unit": "%"}]}]}
